Experimental data as given in patent US11998554B2, “Composition comprising lipoic acid and vitamin D for the prevention and the treatment of neurodegenerative diseases and peripheral neuropathies” (URIACH ITALY S.R.L., priority 2018, dated 2024).

Tests used:
astrocytes [1] = test: MTT cell viability in astrocytes pre-treated with Fe^3+; type: cell-based, mouse; conditions: for cell viability after post-treatment following Fe^3+ (in words): 300 μM Fe^3+ 6 days, then treatment another 6 days
astrocytes [2] = test: Iron quantification assay in astrocytes pre-treated with Fe^3+; type: cell-based, mouse; conditions: for reduction of accumulation of iron against Fe^3+ alone: 300 μM Fe^3+ 6 days, then 50 μM LA, 100 nM vitD another 6 days
[3] = test system: amyloid precursor protein (APP); test: Quantification of APP (ELISA) in astrocytes pre-treated with Fe^3+; type: cell-based, mouse; conditions: for reduction of level of APP against 300 μM Fe^3+: 300 μM Fe^3+ 6 days, then 50 μM LA, 100 nM vitD another 6 days
astrocytes [4] = test: Production of ROS in astrocytes pre-treated with Fe^3+; type: cell-based, mouse; conditions: for reduction of production of ROS with respect to Fe^3+ alone: 300 μM Fe^3+ 6 days, then 50 μM LA, 100 nM vitD another 6 days
iNOS = test: Western blot expression of iNOS under oxidative conditions; type: cell-based, mouse; conditions: post-stimulation after 200 μM H2O2
p53 [5] = test: Activity of p53 (ELISA) in astrocytes pre-treated with Fe^3+; type: cell-based, mouse; conditions: 300 μM Fe^3+ 6 days, then 50 μM LA, 100 nM vitD another 6 days
[6] = test system: blood-brain barrier (BBB) experimental model; test: Blood-brain barrier (BBB) experimental model permeability (astrocytes/HUVEC Transwell co-culture); conditions: 1440 min; 100 nM vitD, 50 μM LA alone
PKA = test: Western blot expression of p-PKA under oxidative conditions; type: cell-based, mouse; conditions: for expression of PKA without H2O2 (in words): 50 μM LA, 100 nM vitD; for expression of PKA after H2O2 (in words): post-stimulation after 200 μM H2O2
ERK/MAPK [7] = test: ERK/MAPK activity (ELISA InstantOne) under oxidative conditions; type: cell-based, mouse; conditions: for ERK/MAPK activity without H2O2 (in words): 24 hours, 50 μM LA, 100 nM vitD; for ERK activity after post-treatment following H2O2 (in words): after 200 μM H2O2
astrocytes [8] = test: Production of ROS (superoxide anion release) under oxidative conditions; type: cell-based, mouse; conditions: for reduction of production of ROS with respect to H2O2 alone: post-treatment after 200 μM H2O2
astrocytes [9] = test: MTT cell viability, dose- and time-dependent, physiological conditions; type: cell-based, mouse; conditions: 1440 min, 50 μM LA, 100 nM vitD
Protocol: The cultures of mouse astrocytes were prepared from male and female C57BL/6 baby mice, following a known conventional technique according to the national guidelines for the use and care of laboratory animals. Basically, within 24 hours from birth, the baby mice were euthanized and the corticals were cut, […] minced, mechanically digested and left to rest for 30 minutes at ambient temperature. The cell suspension was then centrifuged at 800 rpm (revolutions per minute) for 5 minutes. The pelleted cells were resuspended in neuronal basal medium (Sigma-Aldrich), supplemented with fetal bovine serum at 5% (FBS, Gibco), penicillin/streptomycin 1% (Sigma-Aldrich) and L-glutamine 2 mM (Sigma-Aldrich), placed in multiple wells and kept in culture for 6 days prior to the treatment. […] Cell viability was determined by measuring absorbance at 570 nm with correction at 690 nm, using a spectrometer (VICTOR X4, multi-label plate reader) and calculated by comparing the results with the control. […] Firstly, the effect depending on the concentration of LA alone (comprised between 10 μM and 100 μM) on the cell viability over 24 hours (starting from 15 minutes to 1440 minutes) was analysed, with the aim of identifying the best concentration to be used. FIG. 1(a) illustrates the time-dependent and dose-response studies (ranging from 10 μM to 100 μM) of LA measured in astrocytes.

cytochrome C = test: Western blot expression of cytochrome C under oxidative conditions; type: cell-based, mouse; conditions: for expression of cytochrome C without H2O2 (in words): 50 μM LA, 100 nM vitD; for expression of cytochrome C after H2O2 (in words): stimulation after H2O2, p<0.05
ERK/MAPK [10] = test: ERK/MAPK activity (ELISA) in astrocytes pre-treated with Fe^3+; type: cell-based, mouse; conditions: 300 μM Fe^3+ 6 days, then treatment another 6 days, p<0.05
PI3K-Akt = PI3K-Akt activity (ELISA InstantOne) under oxidative conditions; type: cell-based, mouse; conditions: for PI3K-Akt activity without H2O2 (in words): 24 hours, 50 μM LA, 100 nM vitD; for Akt activity after post-treatment following H2O2 (in words): after 200 μM H2O2
SOD3 [11] = test: Western blot expression of SOD3 in astrocytes pre-treated with Fe^3+; type: cell-based, mouse; conditions: 300 μM Fe^3+ 6 days, then 50 μM LA or 100 nM vitD 6 more days, p<0.05
astrocytes [12] = test: MTT cell viability under oxidative conditions (H2O2 pre-treatment); type: cell-based, mouse; conditions: for cell viability after post-treatment (in words): 200 μM H2O2 pre-treatment, then 50 μM LA, 100 nM vitD, 24 hours
p53 [13] = test: Activity of p53 (ELISA on nuclear extracts) under oxidative conditions; type: cell-based, mouse; conditions: for activity of p53 without H2O2 vs control (in words): 50 μM LA, 100 nM vitD, p<0.05; for activity of p53 after H2O2 (in words): stimulation after 200 μM H2O2
SOD3 [14] = test: Western blot expression of SOD3 under oxidative conditions; type: cell-based, mouse; conditions: post-stimulation after 200 μM H2O2
astrocytes [15] = test: Mitochondrial membrane potential (JC-1) under oxidative conditions; type: cell-based, mouse; conditions: 50 μM LA, 100 nM vitD; for mitochondrial potential without H2O2 (in words): p<0.05; for dissipation of the mitochondrial potential after post-treatment, with respect to H2O2 alone (in words): after 200 μM H2O2

For [Fe+3] [Fe^3+], the “reduction of cell viability with respect to the control” value (astrocytes [1]; 300 μM Fe^3+, 6 days) was “about 23%”, the “increase of intracellular iron accumulation with respect to the control” value (astrocytes [2]; 300 μM Fe^3+, 6 days) was “about 69%” and the “increase of level of APP with respect to the control” value ([3]; 300 μM Fe^3+, 6 days) was “about 43%”. For the same compound, the “increase of production of intracellular ROS with respect to the control” value (astrocytes [4]; 300 μM Fe^3+, 6 days) was “about 60%”.

For C=C1CC[C@H](O)C/C1=C/C=C1\CCC[C@]2(C)[C@@H]([C@H](C)CCCC(C)C)CC[C@@H]12 [vitD, cholecalciferol], the “expression of iNOS with respect to 200 μM of H2O2 (in words)” value (iNOS) was “significantly reduced”, the “reduction of activation of p53 with respect to 300 μM Fe^3+” value (p53 [5]) was roughly 88% and the “absorption capacity through the blood-brain barrier (basolateral volume analysis) with respect to the control” value [6] was “about 49.5%”. For the same compound, the “expression of PKA without H2O2 (in words)” value (PKA) was “significant increase”, the “expression of PKA after H2O2 (in words)” value (PKA) was “restored the mechanism” and the “ERK/MAPK activity without H2O2 (in words)” value (ERK/MAPK [7]) was “activating ERK and Akt mediators”. For the same compound, the “ERK activity after post-treatment following H2O2 (in words)” value (ERK/MAPK [7]) was “nullified the effects observed previously”, the “reduction of production of ROS with respect to H2O2 alone” value (astrocytes [8]; 50 μM LA, 100 nM vitD) was roughly 57% and the “cell viability after post-treatment following Fe^3+ (in words)” value (astrocytes [1]) was “cell viability leads to control values”. The “cell viability, maximum effect with respect to the control” value (astrocytes [9]) was “about 22%”, the “reduction of accumulation of iron against Fe^3+ alone” value (astrocytes [2]) was roughly 88% and the “expression of cytochrome C without H2O2 (in words)” value (cytochrome C) was “results similar to those obtained for p53”. For the same compound, the “expression of cytochrome C after H2O2 (in words)” value (cytochrome C) was “reduced”, the “activation of ERK/MAPK with respect to 300 μM Fe^3+ (in words)” value (ERK/MAPK [10]) was “significant reduction” and the “PI3K-Akt activity without H2O2 (in words)” value (PI3K-Akt) was “activating ERK and Akt mediators”. The “Akt activity after post-treatment following H2O2 (in words)” value (PI3K-Akt) was “nullified the effects observed previously”, the “expression of SOD3 after Fe^3+ (in words)” value (SOD3 [11]) was “reduced” and the “cell viability after post-treatment (in words)” value (astrocytes [12]) was “cell viability increased significantly”. The “reduction of level of APP against 300 μM Fe^3+” value [3] was roughly 55%, the “activity of p53 without H2O2 vs control (in words)” value (p53 [13]) was “reduction of the activity of p53” and the “activity of p53 after H2O2 (in words)” value (p53 [13]) was “reduced it significantly”. For the same compound, the “expression of SOD3 with respect to 200 μM of H2O2 (in words)” value (SOD3 [14]) was “significantly reduced”, the “mitochondrial potential without H2O2 (in words)” value (astrocytes [15]) was “significant increase of the red fluorescence” and the “dissipation of the mitochondrial potential after post-treatment, with respect to H2O2 alone (in words)” value (astrocytes [15]) was “significantly inverted”. For the same compound, the “reduction of production of ROS with respect to Fe^3+ alone” value (astrocytes [4]) was roughly 83%.

O=C(O)CCCCC1CCSS1 (racemic) [LA, alpha-lipoic acid] was tested, and the “expression of iNOS with respect to 200 μM of H2O2 (in words)” value (iNOS) was “significantly reduced”, the “reduction of activation of p53 with respect to 300 μM Fe^3+” value (p53 [5]) was “about 84%” and the “absorption capacity through the blood-brain barrier (basolateral volume analysis) with respect to the control” value [6] was roughly 40.5%. For the same compound, the “expression of PKA without H2O2 (in words)” value (PKA) was “significant increase”, the “expression of PKA after H2O2 (in words)” value (PKA) was “restored the mechanism” and the “ERK/MAPK activity without H2O2 (in words)” value (ERK/MAPK [7]) was “activating ERK and Akt mediators”. The “ERK activity after post-treatment following H2O2 (in words)” value (ERK/MAPK [7]) was “nullified the effects observed previously”, the “production of ROS without H2O2 (in words)” value (astrocytes [8]; 50 μM LA, 100 nM vitD, no H2O2, p>0.05 vs control) was “maintaining the production of ROS below the physiological level” and the “reduction of production of ROS with respect to H2O2 alone” value (astrocytes [8]; 50 μM LA, 100 nM vitD) was “about 43%”. The “cell viability after post-treatment following Fe^3+ (in words)” value (astrocytes [1]) was “cell viability leads to control values”, the “cell viability, maximum effect with respect to the control” value (astrocytes [9]) was “about 66%” and the “reduction of accumulation of iron against Fe^3+ alone” value (astrocytes [2]) was “about 81%”. The “expression of cytochrome C without H2O2 (in words)” value (cytochrome C) was “results similar to those obtained for p53”, the “expression of cytochrome C after H2O2 (in words)” value (cytochrome C) was “reduced” and the “activation of ERK/MAPK with respect to 300 μM Fe^3+ (in words)” value (ERK/MAPK [10]) was “significant reduction”. For the same compound, the “PI3K-Akt activity without H2O2 (in words)” value (PI3K-Akt) was “activating ERK and Akt mediators”, the “Akt activity after post-treatment following H2O2 (in words)” value (PI3K-Akt) was “nullified the effects observed previously” and the “expression of SOD3 after Fe^3+ (in words)” value (SOD3 [11]) was “reduced”. For the same compound, the “cell viability after post-treatment (in words)” value (astrocytes [12]) was “cell viability increased significantly”, the “reduction of level of APP against 300 μM Fe^3+” value [3] was “about 63%” and the “activity of p53 without H2O2 vs control (in words)” value (p53 [13]) was “reduction of the activity of p53”. The “activity of p53 after H2O2 (in words)” value (p53 [13]) was “reduced it significantly”, the “expression of SOD3 with respect to 200 μM of H2O2 (in words)” value (SOD3 [14]) was “significantly reduced” and the “mitochondrial potential without H2O2 (in words)” value (astrocytes [15]) was “significant increase of the red fluorescence”. The “dissipation of the mitochondrial potential after post-treatment, with respect to H2O2 alone (in words)” value (astrocytes [15]) was “significantly inverted” and the “reduction of production of ROS with respect to Fe^3+ alone” value (astrocytes [4]) was “about 68%”.

In the case of OO [H2O2], the “reduction of activity of ERK with respect to the control” value (ERK/MAPK [7]; 200 μM H2O2) is reported as “about 6%”, the “increase of production of intracellular ROS with respect to the control” value (astrocytes [8]; 200 μM stressor alone) is reported as “about 30%” and the “reduction of activity of Akt with respect to the control” value (PI3K-Akt; 200 μM H2O2) is reported as roughly 7%. For the same compound, the “reduction of cell viability with respect to the control” value (astrocytes [12]; 200 μM H2O2) was 46%.
